Data reported in patent US20160363584A1, “SYSTEMS AND METHODS FOR STUDYING INFLAMMATION-DRUG INTERACTIONS” (Hepregen Corporation, priority 2012, published 2016).
Like-named read-outs stand apart in the source and are kept apart here.

Experiments:
[1] = tested on: human Kupffer-HepatoPac™ cultures; type: cell-based
Description: Cryopreserved human hepatocytes, cryopreserved human Kupffer cells and 3T3 J2 mouse fibroblasts were used in the manufacturing of the co-culture platform. Cryopreserved hepatocyte vials were thawed in a 37° C. water bath for 90-120 seconds followed by dilution in 50 mL of pre-warmed percoll-based hepatocyte density sedimentation medium (p=1.06). The cell suspension was spun at 50×g for 5 minutes. The supernatant was discarded, cells were resuspended in hepatocyte culture media (HCM) (Hepregen Corporation, Medford, Mass.) and viability was assessed using trypan blue exclusion (typically 80-95%). Liver-derived non-parenchymal cells, as judged by their size (˜10 μm in diameter) and morphology (non-polygonal), were consistently found to be less than 1% in these preparations. […] Kupffer cells were gently rocked into suspension and evaluated for viability via Trypan Blue exclusion. […]
Cytotoxicity was assessed by evaluation of cellular ATP content while hepatocyte metabolic competence was assessed by urea production. […] The reaction is based on the acid catalyzed condensation of urea with diacetylmonoxime in the presence of thiosemicarbazide to yield a red purple chromogen that is read spectrophotometrically. The cellular ATP content was measured in cell lysates using the Cell Titer-Glo luminescent kit from Promega (Madison, Wis.). […]

[2] = tested on: human Kupffer cell-treated HepatoPac™ model; test: Chronic toxicity platform, nine day treatment, cellular ATP content; type: cell-based; details: for Toxicity in the presence of LPS-stimulated Kupffer cells: 50 ng/ml LPS; for Toxicity following nine days of compound dosing: all treatment conditions (HepatoPac or Kupffer cell-treated, +/- LPS)
Description: Chronic toxicity of various compounds suspected to be immunoreactive was evaluated with the human Kupffer cell-treated HepatoPac™ model (hepatocyte:Kupffer cell ratio of 1:0.4). Following a nine day treatment, compound toxicity was assessed as a function of cellular ATP content. TVX was used as a positive control. […] On day 7, cryopreserved unmatched Kupffer cells were added to the cultures. The cultures were dosed with compounds on culture Day 8 (hereby referred to as Dosing Day 0). On Dosing Day 1, LPS was added to the culture media at a final concentration of 50 ng/ml. On Dosing Day 3, 10 μl of supernatant was removed from cultures for urea analysis and replaced with an additional dose of the test compound. Similarly, supernatant was collected and cultures were re-dosed on Dosing Days 5 and 7. On Dosing Day 9, supernatant was collected and the cellular ATP content of the cultures was assessed (Promega Cell Titer Glo). Urea secretion of hepatocytes was quantified for the time-points of Dosing Day […], 5, 7, and 9 (data not shown).

[3] = tested on: mouse; details: cited from earlier work; for Effect on TVX/LPS toxic response: in vivo mouse model, Shaw et al.
[4] = tested on: Human HepatoMune™ co-cultures; test: cells
Description: Hepatocytes were seeded on micropatterned collagen plates on Day 0. On Day 1, 3T3 fibroblasts were added to the cultures. Human HepatoPac® co-cultures were allowed to stabilize functionally for 7 days in serum-supplemented medium. Human Kupffer cells (from unmatched donors) were seeded onto the hepatocyte cocultures on Day 7 of culture at a hepatocyte to Kupffer cell ratio of 10:4. […] Cell lysates from each treatment group were collected on days 11 and 14 of culture for assessment of drug-induced effects on cytotoxicity.

[5] = tested on: rat Kupffer-HepatoPac™ cultures; type: cell-based
Description: Cytotoxicity was assessed by evaluation of cellular ATP content while hepatocyte metabolic competence was assessed by urea production. Production of urea, a liver-specific function, was assayed in culture media using the Stanbio kit according to manufacturer's directions. The reaction is based on the acid catalyzed condensation of urea with diacetylmonoxime in the presence of thiosemicarbazide to yield a red purple chromogen that is read spectrophotometrically. The cellular ATP content was measured in cell lysates using the Cell Titer-Glo luminescent kit from Promega (Madison, Wis.).
HepatoPac™ co-cultures were first allowed to stabilize functionally in serum-supplemented media for a 7-day period. Species-matched Kupffer cells were added to human and rat HepatoPac™ at multiple ratios (to mimic both the normal and inflamed state of the liver). To mimic the physiological state, human and rate Kupffer cells were added at hepatocyte:Kupffer cell ratios of 1:0.1 and 1:0.2, respectively. To mimic the inflamed state human Kupffer cells (at a ratio of 1:0.4 hepatocytes:Kupffer cells) or rat Kupffer cells (at a ratio of 1:0.5 hepatocytes:Kupffer cells) were then added to the cultures. On day 8 of culture, the cultures were treated with increasing concentrations of either Trovafloxacin or Levofloxacin (0-400 μM) in serum-free media. 24 hrs later, the cultures were stimulated with 50 ng/mL LPS. […]

[6] = tested on: TNF-α; test: TNF-α secretion in TVX/LPS-treated rat cultures with pentoxifylline; type: cell-based; details: 5 mM pentoxifylline
Description: Cultures were treated with Trovafloxacin and 5 mM Pentoxifylline for 72 hours. After 24 hours of dosing, Kupffer cells were activated with 50 ng/ml of LPS.

[7] = tested on: HepatoPac™-Kupffer cell co-cultures; test: IL-6 secretion after cytokine exposure of HepatoPac-Kupffer cell co-cultures; type: cell-based, human; details: 2 or 4 day treatment
Description: (§1) Cultures received 2 or 4 day treatment with IL-2, IL-1B, TNF-α, or IL-6 in serum-free media after which cytokine levels were assayed in their supernatants, Cyp3A4 activity was determined using the P450-Glo Assay (Promega), total ATP was measured (Promega Cell-Titer Glo) and RNA was extracted (Qiagen Rneasy).
Cultures were exposed to IL-2, IL-1B and TNF-α and secretion of IL-6 into the culture supernatant was measured.

[8] = tested on: CYP3A4
Description: as §1
Standard human HepatoPac™ and Kupffer cell-treated HepatoPac™ (hepatocyte:Kupffer cell ratio of 1:0.4) cultures were treated with the inflammatory cytokine IL-1B for 4 days. Sensitivity to IL-1B was measured as a function of Cyp3A4 activity repression. Following 4 days of IL-1B treatment, cytokines were removed and cultures were allowed to recover for 6 days.

Compound: N[C@@H]1[C@H]2CN(c3nc4c(cc3F)c(=O)c(C(=O)O)cn4-c3ccc(F)cc3F)C[C@@H]12 [TVX, trovafloxacin]
- TVX toxicity on addition of TNF-α [1]: potentiates TVX toxicity
- Toxicity in the presence of LPS-stimulated Kupffer cells ([2]; 9-day treatment): increased toxicity
- Toxicity following nine days of compound dosing [2]: toxicity in all treatment conditions was observed
- Toxicity under LPS-induced inflammatory stress ([3]; mouse, in vivo): toxic

Compound: CN(C)CCCN1c2ccccc2Sc2ccc(Cl)cc21 [chlorpromazine]
- IC50 ([4]; read-out: IC50 (concentration at which 50% of the cells are dead), absence of LPS): 29 µM
- IC50 ([4]; read-out: IC50 (concentration at which 50% of the cells are dead), presence of 50 ng/ml LPS): 17 µM

Compound: O=C(O)Cc1ccccc1Nc1c(Cl)cccc1Cl [diclofenac]
- LPS-mediated toxicity after 3-day treatment ([2]; 3-day treatment (data not shown)): did not result in increased LPS-mediated toxicity
- Toxicity in the presence of LPS-stimulated Kupffer cells ([2]; 9-day treatment): increased toxicity

Compound: CC(=O)N1CCN(c2ccc(OCC3COC(Cn4ccnc4)(c4ccc(Cl)cc4Cl)O3)cc2)CC1 (stereo not drawn) [ketoconazole]
- Difference in TC50 between treatment groups ([2]; 9-day treatment): no significant difference
- Toxicity following nine days of compound dosing [2]: toxicity in all treatment conditions was observed

Compound: C[C@H]1COc2c(N3CCN(C)CC3)c(F)cc3c(=O)c(C(=O)O)cn1c23 [levofloxacin]
- Toxicity (cellular ATP content) [5]: not toxic

Compound: CC(=O)CCCCn1c(=O)c2c(ncn2C)n(C)c1=O [pentoxifylline]
- Effect on TVX/LPS-induced HepatoPac toxicity ([5]; 5 mM pentoxifylline, 72 hours, 50 ng/ml LPS after 24 hours): significantly decreased
- Effect on TNF-α secretion [6]: significantly decreased
- Effect on TVX/LPS toxic response [3]: toxicity abrogation

Compound: IL-1B: inflammatory cytokine
- IL-6 secretion into the culture supernatant [7]: causes IL-6 release
- CYP3A4 expression [8]: Repression of CYP3A4 expression
- Cyp3A4 activity [8]: dose-dependent and Kupffer cell-enhanced repression
- Time Cyp3A4 activity remained repressed after removal of IL-1B ([8]; human, 96 h): 4 days

Compound: IL-6: cytokine
- Cyp3A4 activity [8]: maintains repression

Compound: TNF-α
- IL-6 secretion into the culture supernatant [7]: no effect

Compound: etanercept
- Effect on TVX/LPS toxic response [3]: toxicity abrogation
